Results as given in article PMC9374667 (Communications Biology, 2022).
“And” between values parts separate entries of the source, which are not always exact repeats. Equal values may be shown once.

Legend:
[1] = target: T1, TBK1 (Mus musculus, UniProt Q9WUN2); assay: TBK1 kinase activity in TNF-α induced 3T3-L1 adipocytes; type: cell-based, Murine; set-up: host or cells: differentiated 3T3-L1 adipocytes (Lipofectamine 2000); TBK1 kinase activity: unit not given here; conditions: for TBK1 kinase activity: Figure 7g, replicates
T1 sequence (Q9WUN2 1-729): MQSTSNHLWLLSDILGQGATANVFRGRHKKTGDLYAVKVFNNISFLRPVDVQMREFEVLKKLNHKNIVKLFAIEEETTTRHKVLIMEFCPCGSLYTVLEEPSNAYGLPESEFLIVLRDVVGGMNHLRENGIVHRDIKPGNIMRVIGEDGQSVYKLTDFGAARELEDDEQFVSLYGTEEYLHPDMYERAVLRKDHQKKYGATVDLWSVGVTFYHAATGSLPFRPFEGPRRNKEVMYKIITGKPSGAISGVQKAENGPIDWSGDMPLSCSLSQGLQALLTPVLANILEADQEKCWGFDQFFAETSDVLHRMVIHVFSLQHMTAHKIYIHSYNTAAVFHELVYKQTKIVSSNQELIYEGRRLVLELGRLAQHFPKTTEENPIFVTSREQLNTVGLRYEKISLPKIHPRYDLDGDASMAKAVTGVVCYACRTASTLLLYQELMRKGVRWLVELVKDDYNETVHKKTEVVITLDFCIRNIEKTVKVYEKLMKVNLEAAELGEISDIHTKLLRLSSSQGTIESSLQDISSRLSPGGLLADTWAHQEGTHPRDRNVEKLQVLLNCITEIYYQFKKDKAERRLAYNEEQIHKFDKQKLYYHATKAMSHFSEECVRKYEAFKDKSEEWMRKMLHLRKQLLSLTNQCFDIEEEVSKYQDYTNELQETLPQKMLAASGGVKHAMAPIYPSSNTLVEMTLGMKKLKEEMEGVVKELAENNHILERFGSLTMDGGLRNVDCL

[2] = tested on: Ikbke; assay: RT-qPCR of Ikbke in eWAT and BAT; type: in vivo; conditions: db/db mice, both doses of BJ
Description: Total RNA was isolated from 3T3-L1 cells and adipose tissue homogenates using Trizol reagent (Invitrogen, Carlsbad, CA, USA). RNA concentration and purity were examined at 260/280 nm using a nanodrop spectrophotometer (NanoDrop One, Thermo Fisher Scientific, USA). The total RNA was reverse transcribed to cDNA using the EasyScript All-in-One First-Strand cDNA Synthesis SuperMix for qPCR kit (TransGen Biotech, Beijing, China). The quantitative reverse transcription polymerase chain reaction was performed using TransStart Top Green qPCR SuperMix (TransGen Biotech, Beijing, China) and an Applied Biosystems 7500 RealTime PCR System (Life Technologies, USA). Relative expression levels were normalized to gapdh expression and quantified using the 2^-ΔΔCt method. The primers were synthesized by Shanghai Sangon Biotech, and the detailed primer sequences were shown in Supplementary Table 5 in the supplementary materials.

[3] = In vivo pharmacokinetics studies after gavage; conditions: male, SD, rat, plasma, po
Experimental: The pharmacokinetic parameters were calculated by the statistical moment method of non-atrioventricular model.
Blood samples (0.5 mL) were collected from the retro-orbital venous plexus at appropriate time points and placed in collection tubes with anticoagulants. Plasma was obtained from the blood samples by centrifuged (4000 rpm, 10 min, 4 °C) and stored at −20 °C until analysis. 400 µL of acetonitrile was added to 200 µL of rat plasmas, and vortexed for 90 s and finally centrifuged at 12,000 rpm for about 10 min. 20 µL of the supernatant was used to determinate the concentration of berberine in plasma by using the liquid chromatography-mass spectrometry (Waters XBridge, Waters, USA).
The maximum peak concentration (Cmax) and the time of reaching Cmax (Tmax) can be obtained from the measured data. The area under the concentration-time curve (AUC0→t) was estimated by the trapezoidal summation. The area under the curve from time zero to infinity (AUC0→∞) was also determined..

[4] = tested on: db/db mice; assay: Indirect calorimetry (CLAMS): VO2, VCO2, RER; type: in vivo; set-up: Figure 3g (VCO2), individual mice 1-6: unit not given here; conditions: for Figure 3g (VCO2), individual mice 1-6 / Figure 3e (VO2), individual mice 1-6: BBR 150mg/kg; for Figure 3e (VO2), individual mice 1-6: in mL/kg/h (unit assumed); for Average RER (VCO2/VO2) / Average VCO2 / Average VO2: 150 mg/kg for 5 weeks, individual mice, 150 mg/kg
Experimental: At week 5 of treatment, basal metabolic parameters of mice were measured using the Comprehensive Lab Animal Monitoring System (CLAMS, Columbus Instruments, Columbus, OH). […] The number of times the infrared beams were broken along the X- or Y-axis was used to measure the dynamic activity of mice. The respiratory exchange rate (RER) was calculated using classical Lusk theory and equations RER = VCO2/VO2.

SMILES: CC(C)Cc1ccc(C(C)C(=O)[O-])cc1.COc1ccc2cc3[n+](cc2c1OC)CCc1cc2c(cc1-3)OCO2.O.O.O.O [BJ, berberine-ibuprofen]
- TBK1 kinase activity ([1]; TNF-α(50ng/ml)+3μM BJ): 30.9473 and 32.9827 and 24.4703 and 29.2741 and 25.0999 and 33.9831
- TBK1 kinase activity ([1]; TNF-α(50ng/ml)+10μM BJ): 22.2193 and 16.8634 and 20.5634 and 20.4771 and 22.3055 and 16.9152
- TBK1 expression level / kinase activity ([1]; TNF-α induced 3T3-L1 adipocytes, BJ treatment for 24 h): markedly decreased
- Ikbke mRNA expression in BAT [2]: had no effect
- mRNA level of IKKε (Ikbke) in eWAT [2]: significantly reduced

SMILES: COc1ccc2cc3[n+](cc2c1OC)CCc1cc2c(cc1-3)OCO2 [BBR, Berberine chloride dihydrate]
- Tmax [3]: 30 ± 4.8 min
- Figure 3g (VCO2), individual mice 1-6 ([4]; TIME 09:00:00): 2187 and 1798.5 and 1382 and 1550.5 and 1282 and 1729
- Figure 3e (VO2), individual mice 1-6 ([4]; TIME 09:00:00): 2463.5 and 1992.5 and 1618.5 and 1830.5 and 1604 and 1996.5
- Figure 3g (VCO2), individual mice 1-6 ([4]; TIME 10:00:00): 2025.5 and 1306.5 and 1293 and 1507.5 and 1152.5 and 1351.5
- Figure 3e (VO2), individual mice 1-6 ([4]; TIME 10:00:00): 2239.5 and 1396.5 and 1525.5 and 1818.5 and 1443 and 1558.5
- Figure 3g (VCO2), individual mice 1-6 ([4]; TIME 11:00:00): 1508.5 and 1801 and 1600.5 and 1450.5 and 1810.5 and 2131.5
- Figure 3e (VO2), individual mice 1-6 ([4]; TIME 11:00:00): 1686.5 and 2034 and 1941 and 1727 and 2185.5 and 2486.5
- Figure 3g (VCO2), individual mice 1-6 ([4]; TIME 12:00:00): 1560 and 1682.5 and 1287 and 1655.5 and 1234 and 1351
- Figure 3e (VO2), individual mice 1-6 ([4]; TIME 12:00:00): 1799.5 and 1905 and 1604.5 and 1986.5 and 1472.5 and 1528
- Figure 3g (VCO2), individual mice 1-6 ([4]; TIME 13:00:00): 1425.5 and 1753 and 2069 and 1636 and 1111.5 and 1447.5
- Figure 3e (VO2), individual mice 1-6 ([4]; TIME 13:00:00): 1585 and 1943.5 and 2523.5 and 1919 and 1415 and 1703
- Figure 3g (VCO2), individual mice 1-6 ([4]; TIME 14:00:00): 1628.5 and 1269.5 and 1997.5 and 1334 and 1382 and 1265.5
- Figure 3e (VO2), individual mice 1-6 ([4]; TIME 14:00:00): 1785 and 1394 and 2318.5 and 1559 and 1696.5 and 1512.5
- Figure 3g (VCO2), individual mice 1-6 ([4]; TIME 15:00:00): 1579.5 and 1285 and 1642.5 and 1147.5 and 2064.5 and 1675
- Figure 3e (VO2), individual mice 1-6 ([4]; TIME 15:00:00): 1826 and 1499.5 and 1948.5 and 1433.5 and 2445.5 and 1943
- Figure 3g (VCO2), individual mice 1-6 ([4]; TIME 16:00:00): 1579 and 1741 and 1899.5 and 1326 and 1630.5 and 1658.5
- Figure 3e (VO2), individual mice 1-6 ([4]; TIME 16:00:00): 1816.5 and 2044.5 and 2249 and 1622.5 and 1845.5 and 1914
- Figure 3g (VCO2), individual mice 1-6 ([4]; TIME 17:00:00): 1290.5 and 1905.5 and 1610 and 1666.5 and 1315 and 1412.5
- Figure 3e (VO2), individual mice 1-6 ([4]; TIME 17:00:00): 1507 and 2598 and 1769 and 2019 and 1551.5 and 1596.5
- Figure 3g (VCO2), individual mice 1-6 ([4]; TIME 18:00:00): 1292.5 and 1365.5 and 1937 and 1461.5 and 1206 and 1444
- Figure 3e (VO2), individual mice 1-6 ([4]; TIME 18:00:00): 1496 and 1510 and 2285 and 1793 and 1482.5 and 1701
- Figure 3g (VCO2), individual mice 1-6 ([4]; TIME 19:00:00): 1404 and 1310 and 1770.5 and 1481 and 1876 and 2094
- Figure 3e (VO2), individual mice 1-6 ([4]; TIME 19:00:00): 1643.5 and 1465 and 2034 and 1838.5 and 2235 and 2481.5
- Figure 3g (VCO2), individual mice 1-6 ([4]; TIME 20:00:00): 1181 and 2034.5 and 1933 and 1597 and 1575 and 1493.5
- Figure 3e (VO2), individual mice 1-6 ([4]; TIME 20:00:00): 1393.5 and 2338.5 and 2268.5 and 1885.5 and 1848 and 1679
- Figure 3g (VCO2), individual mice 1-6 ([4]; TIME 21:00:00): 1529.5 and 1566 and 1830 and 1676.5 and 1825.5 and 1630.5
- Figure 3e (VO2), individual mice 1-6 ([4]; TIME 21:00:00): 1863.5 and 1748.5 and 2189 and 2027 and 2201.5 and 1886
- Figure 3g (VCO2), individual mice 1-6 ([4]; TIME 22:00:00): 1627 and 2225 and 1746.5 and 1760.5 and 1520.5 and 2058.5
- Figure 3e (VO2), individual mice 1-6 ([4]; TIME 22:00:00): 1913.5 and 2540.5 and 2028.5 and 2082.5 and 1881 and 2440
- Figure 3g (VCO2), individual mice 1-6 ([4]; TIME 23:00:00): 1717.5 and 1505 and 2209 and 1848.5 and 1914.5 and 1764
- Figure 3e (VO2), individual mice 1-6 ([4]; TIME 23:00:00): 1949 and 1704 and 2610 and 2181 and 2319.5 and 2010
- Figure 3g (VCO2), individual mice 1-6 ([4]; TIME 1900-01-01): 2124.5 and 2214 and 2120 and 1937 and 2080.5 and 2184
- Figure 3g (VCO2), individual mice 1-6 ([4]; TIME 1900-01-01 01:00:00): 2199 and 2168 and 2133.5 and 2137.5
- Figure 3e (VO2), individual mice 1-6 ([4]; TIME 1900-01-01 01:00:00): 2537.5 and 2453.5 and 2566.5 and 2667.5
- Figure 3e (VO2), individual mice 1-6 ([4]; TIME 1900-01-01): 2407.5 and 2513.5 and 2566 and 2292.5 and 2527.5 and 2541
- Average RER (VCO2/VO2) ([4]; db/db mice, day (light)): 0.8616 and 0.8798 and 0.8875 and 0.8398 and 0.8298 and 0.8335
- Average VCO2 ([4]; db/db mice, day (light)): 27.0427 mL/min/kg and 26.0915 mL/min/kg and 26.8287 mL/min/kg and 27.4625 mL/min/kg and 24.4077 mL/min/kg and 25.0565 mL/min/kg
- Average VO2 ([4]; db/db mice, day (light)): 31.4158 mL/min/kg and 29.6362 mL/min/kg and 30.277 mL/min/kg and 32.69 mL/min/kg and 29.3548 mL/min/kg and 30.0223 mL/min/kg
- Average RER (VCO2/VO2) ([4]; db/db mice, night (dark)): 0.8596 and 0.865 and 0.8782 and 0.8452 and 0.8334 and 0.8299
- Average VCO2 ([4]; db/db mice, night (dark)): 30.8835 mL/min/kg and 33.2053 mL/min/kg and 32.3175 mL/min/kg and 33.4173 mL/min/kg and 30.4887 mL/min/kg and 29.875 mL/min/kg
- Average VO2 ([4]; db/db mice, night (dark)): 35.933 mL/min/kg and 38.3562 mL/min/kg and 36.82 mL/min/kg and 39.5103 mL/min/kg and 36.573 mL/min/kg and 36.013 mL/min/kg
- Oxygen consumption (VO2) and carbon dioxide elimination (VCO2) levels ([4]; db/db mice, light-dark cycle, 5 weeks of treatment, vs vehicle): significantly higher than those in the vehicle-treated group
